For one data set, the target named is human D2 receptor (Homo sapiens (Human), UniProt P14416). The data set is described as follows: Radioligand binding ([3H]-spiperone) to human D2 receptor, HEK293 EBNA membranes. The following applies: HEK293 EBNA cells expressing human D2 receptor. In short, it runs like this:
(§1)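 Membranes from transiently transfected HEK293 EBNA cells (~7.5 μg protein/well) were incubated 1 h at RT with [3H]-spiperone (~0.7 nM for D2, 0.5 nM for D3) and ten compound concentrations (10 μM–0.1 nM) in Tris/NaCl/MgCl2/CaCl2 buffer pH 7.4. Filtration and scintillation counting, nonspecific with 10 μM spiperone; Ki via Cheng-Prusoff.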

The target in another data set is human D3 receptor (Homo sapiens (Human), UniProt P35462). The data set is described as follows: Radioligand binding ([3H]-spiperone) to human D3 receptor, HEK293 EBNA membranes. The following applies: HEK293 EBNA cells expressing human D3 receptor. The method, boiled down:
as §1

The target of another data set is human 5-HT2A receptor (Homo sapiens (Human), UniProt P28223). Briefly: Radioligand binding ([3H]-ketanserin) to human 5-HT2A receptor, HEK293 EBNA membranes. As to conditions: HEK293 EBNA cells expressing human 5-HT2A receptor. The method, boiled down: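 Membranes from HEK293 EBNA cells transiently expressing the human receptor were incubated 1 h at RT with ~0.7 nM (D2) or 0.5 nM (D3) [3H]-spiperone, or 1.1 nM [3H]-ketanserin (5-HT2A), plus ten compound concentrations (10 μM–0.1 nM). Nonspecific binding was set with 10 μM spiperone; Ki was derived from IC50 via Cheng-Prusoff.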

Each structure is given as a SMILES string.

This is an account of results in patent publication US8921397B2, “Benzofurane-piperidine compounds” (Hoffmann-La Roche Inc., priority 2011, dated 2014).

human 5-HT2A receptor, sequence (P28223 whole entry): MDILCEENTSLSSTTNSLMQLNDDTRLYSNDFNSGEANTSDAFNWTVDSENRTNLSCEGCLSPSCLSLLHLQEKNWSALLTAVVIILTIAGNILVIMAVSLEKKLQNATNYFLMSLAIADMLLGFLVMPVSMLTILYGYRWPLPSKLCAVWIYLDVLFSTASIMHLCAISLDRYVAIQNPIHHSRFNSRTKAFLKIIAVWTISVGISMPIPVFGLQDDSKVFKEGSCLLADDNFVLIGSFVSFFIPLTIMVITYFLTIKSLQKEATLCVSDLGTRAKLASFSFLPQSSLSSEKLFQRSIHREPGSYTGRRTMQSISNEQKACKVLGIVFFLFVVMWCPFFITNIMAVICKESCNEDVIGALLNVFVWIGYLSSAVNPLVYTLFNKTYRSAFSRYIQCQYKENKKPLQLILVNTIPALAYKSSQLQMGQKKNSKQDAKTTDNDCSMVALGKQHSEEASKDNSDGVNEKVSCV
human D3 receptor, sequence (P35462 whole entry): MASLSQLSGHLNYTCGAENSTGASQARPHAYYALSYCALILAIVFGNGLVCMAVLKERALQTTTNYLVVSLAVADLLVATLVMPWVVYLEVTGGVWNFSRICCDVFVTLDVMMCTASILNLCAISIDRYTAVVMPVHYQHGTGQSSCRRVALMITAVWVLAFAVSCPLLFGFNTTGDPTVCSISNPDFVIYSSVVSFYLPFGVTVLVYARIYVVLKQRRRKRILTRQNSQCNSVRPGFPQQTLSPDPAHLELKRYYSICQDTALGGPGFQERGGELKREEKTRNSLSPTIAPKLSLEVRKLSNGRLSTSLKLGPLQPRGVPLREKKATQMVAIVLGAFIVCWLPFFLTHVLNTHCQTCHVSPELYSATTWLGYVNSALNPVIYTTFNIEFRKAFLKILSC
human D2 receptor, sequence (P14416 whole entry): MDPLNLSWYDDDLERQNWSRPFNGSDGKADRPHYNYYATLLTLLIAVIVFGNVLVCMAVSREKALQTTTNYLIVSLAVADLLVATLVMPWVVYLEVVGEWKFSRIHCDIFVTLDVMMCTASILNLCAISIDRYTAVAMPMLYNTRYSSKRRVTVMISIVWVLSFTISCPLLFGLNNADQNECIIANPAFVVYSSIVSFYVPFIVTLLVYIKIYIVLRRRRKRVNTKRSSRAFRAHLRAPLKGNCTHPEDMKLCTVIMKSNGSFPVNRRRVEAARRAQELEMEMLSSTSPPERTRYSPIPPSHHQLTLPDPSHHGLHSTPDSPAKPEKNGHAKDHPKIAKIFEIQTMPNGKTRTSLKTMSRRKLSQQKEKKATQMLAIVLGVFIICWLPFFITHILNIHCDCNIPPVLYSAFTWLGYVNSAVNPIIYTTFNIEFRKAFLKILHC

One may read the Ki as the dissociation constant of the complex between target and ligand, obtained from inhibition or displacement. The melting point is the temperature of the solid-liquid transition. With `O=C(Cc1ccc2c(c1)OCO2)N[C@H]1CC[C@H](CCN2CCC(c3coc4ccccc34)CC2)CC1` [Example 74, trans-2-Benzo[1,3]dioxol-5-yl-N-{4-[2-(4-benzofuran-3-yl-piperidin-1-yl)-ethyl]-cyclohexyl}-acetamide], the melting point was determined as 177 °C. At human D2 receptor, the Ki is 92.5 nM. Also, the inhibition constant Ki on human D3 receptor amounted to 1.66 nM. Further, the Ki on human 5-HT2A receptor was 11.5 nM.
For the molecule `CS(=O)(=O)c1ccc(C(=O)N[C@H]2CC[C@H](CCN3CCC(c4coc5ccccc45)CC3)CC2)s1` [Example 75, 5-Methanesulfonyl-thiophene-2-carboxylic acid trans-{4-[2-(4-benzofuran-3-yl-piperidin-1-yl)-ethyl]-cyclohexyl}-amide], the melting point stood at 214 °C. For the same molecule, the Ki on human D2 receptor is 60.8 nM. Moreover, the inhibition constant (Ki) on human D3 receptor worked out at 3.89 nM. For the same molecule, the Ki on human 5-HT2A receptor came to 7.85 nM.
In the case of `O=C(CC1COC1)N[C@H]1CC[C@H](CCN2CCC(c3coc4ccccc34)CC2)CC1` [Example 76, trans-N-{4-[2-(4-Benzofuran-3-yl-piperidin-1-yl)-ethyl]-cyclohexyl}-2-oxetan-3-yl-acetamide], the melting point came out at 197 °C. Further, the Ki at human D2 receptor came out at 34.2 nM. Also, at human D3 receptor, the Ki turned out to be 1.64 nM. In addition, the inhibition constant Ki on human 5-HT2A receptor was found to be 5.25 nM.
`CC(C)(C)C1CCC(C(=O)N[C@H]2CC[C@H](CCN3CCC(c4coc5ccccc45)CC3)CC2)CC1` (stereo partly drawn) [Example 77, 4-tert-Butyl-cyclohexanecarboxylic acid trans-{4-[2-(4-benzofuran-3-yl-piperidin-1-yl)-ethyl]-cyclohexyl}-amide] returned a melting point of 199 °C. The Ki on human D2 receptor came out at 345 nM. Moreover, the inhibition constant (Ki) at human D3 receptor came to 9.48 nM. In addition, the Ki at human 5-HT2A receptor is 6.03 nM.
Taken in the same sequence, the figures for `O=C(N[C@H]1CC[C@H](CCN2CCC(c3coc4ccccc34)CC2)CC1)C12CC3CC(CC(C3)C1)C2` [Example 78, Adamantane-1-carboxylic acid trans-{4-[2-(4-benzofuran-3-yl-piperidin-1-yl)-ethyl]-cyclohexyl}-amide] were 200 °C, 129 nM, 12.7 nM and 17.4 nM.
Regarding `O=C(N[C@H]1CC[C@H](CCN2CCC(c3coc4ccccc34)CC2)CC1)C1CCC(C(F)(F)F)CC1` (stereo partly drawn) [Example 79, 4-Trifluoromethyl-cyclohexanecarboxylic acid trans-{4-[2-(4-benzofuran-3-yl-piperidin-1-yl)-ethyl]-cyclohexyl}-amide], the melting point stood at 190 °C. On human D2 receptor, the inhibitory constant (Ki) was found to be 73 nM. Moreover, at human D3 receptor, the Ki was found to be 6.8 nM. The Ki on human 5-HT2A receptor is 11.2 nM.
Taken in the same sequence, the figures for `CC(C)Cc1ccc(C(=O)N[C@H]2CC[C@H](CCN3CCC(c4coc5ccccc45)CC3)CC2)cc1` [Example 80, trans-N-{4-[2-(4-Benzofuran-3-yl-piperidin-1-yl)-ethyl]-cyclohexyl}-4-isobutyl-benzamide] were 190 °C, 292 nM, 4.16 nM and 2.69 nM.
Taken in the same sequence, the figures for `CCc1ccc(C(=O)N[C@H]2CC[C@H](CCN3CCC(c4coc5ccccc45)CC3)CC2)cc1` [Example 81, trans-N-{4-[2-(4-Benzofuran-3-yl-piperidin-1-yl)-ethyl]-cyclohexyl}-4-ethyl-benzamide] were 192 °C, 204 nM, 1.33 nM and 2.53 nM.
Turning to `O=C(N[C@H]1CC[C@H](CCN2CCC(c3coc4ccccc34)CC2)CC1)c1ccc(C2CCCCC2)cc1` [Example 82, trans-N-{4-[2-(4-Benzofuran-3-yl-piperidin-1-yl)-ethyl]-cyclohexyl}-4-cyclohexyl-benzamide], the melting point is 230 °C. For the same molecule, at human D2 receptor, the “D2 Ki” value is “inact”. For the same molecule, the inhibition constant Ki on human D3 receptor stood at 41.3 nM. Moreover, the Ki at human 5-HT2A receptor worked out at 5.81 nM.
In the case of `CC(C)c1ccc(C(=O)N[C@H]2CC[C@H](CCN3CCC(c4coc5ccccc45)CC3)CC2)cc1` [Example 83, trans-N-{4-[2-(4-Benzofuran-3-yl-piperidin-1-yl)-ethyl]-cyclohexyl}-4-isopropyl-benzamide], the melting point is 188 °C. On human D2 receptor, the Ki was found to be 402 nM. On human D3 receptor, the Ki is 4.8 nM. In addition, the Ki on human 5-HT2A receptor was determined as 2.6 nM.
Taken in the same sequence, the figures for `O=C(N[C@H]1CC[C@H](CCN2CCC(c3coc4ccccc34)CC2)CC1)c1ccc(C2CC2)cc1` [Example 84, trans-N-{4-[2-(4-Benzofuran-3-yl-piperidin-1-yl)-ethyl]-cyclohexyl}-4-cyclopropyl-benzamide] were 199 °C, 355 nM, 14.1 nM and 2.15 nM.
The molecule `O=C(Cc1noc2ccccc12)N[C@H]1CC[C@H](CCN2CCC(c3coc4ccccc34)CC2)CC1` [Example 85, trans-2-Benzo[d]isoxazol-3-yl-N-{4-[2-(4-benzofuran-3-yl-piperidin-1-yl)-ethyl]-cyclohexyl}-acetamide] came in with a melting point of 175 °C. Moreover, on human D2 receptor, the Ki turned out to be 245 nM. Moreover, the inhibition constant (Ki) on human D3 receptor worked out at 145 nM. Besides, at human 5-HT2A receptor, the Ki worked out at 8.22 nM.
Molecule `CS(=O)(=O)c1ccc(C(=O)N[C@H]2CC[C@H](CCN3CCC(c4coc5ccccc45)CC3)CC2)cc1` [Example 86, trans-N-{4-[2-(4-Benzofuran-3-yl-piperidin-1-yl)-ethyl]-cyclohexyl}-4-methanesulfonyl-benzamide] returned a melting point of 224 °C. In addition, on human D2 receptor, the inhibitory constant (Ki) was found to be 79.5 nM. Also, on human D3 receptor, the Ki came out at 25 nM. Moreover, on human 5-HT2A receptor, the Ki amounted to 5.79 nM.
Taken in the same sequence, the figures for `O=C(N[C@H]1CC[C@H](CCN2CCC(c3coc4ccccc34)CC2)CC1)c1ccc(Cl)cc1Cl` [Example 87, trans-N-{4-[2-(4-Benzofuran-3-yl-piperidin-1-yl)-ethyl]-cyclohexyl}-2,4-dichloro-benzamide] were 187 °C, 38.2 nM, 4.37 nM and 12.3 nM.
Taken in the same sequence, the figures for `CC(C)(C)c1ccc(S(=O)(=O)N[C@H]2CC[C@H](CCN3CCC(c4coc5ccccc45)CC3)CC2)cc1` [Example 88, trans-N-{4-[2-(4-Benzofuran-3-yl-piperidin-1-yl)-ethyl]-cyclohexyl}-4-tert-butyl-benzenesulfonamide] were 171 °C, 70 nM, 12.1 nM and 31.5 nM.
